Measurements published in patent US7262301B1, “Zinc-chelating ratiometric fluorescent probes and related methods” (Northwestern University, priority 2003, dated 2007).
Values after ≈ are worked out from the molar mass of the structure shown. Where two headings read alike, the source gives them in different places.

Columns and labels:
[1] = system: mouse fibroblast LTK cell line; experiment: Two-photon emission ratio imaging of fixed fibroblast cells; assay type: cell-based
Experimental: FIG. 5. Emission ratio images of fibroblast (LTK) cells treated with Zinbo-5. (A) Brightfield transmission image; (B) ratio image of the intensities at 445 nm and 402 nm; (C) ratio image following a 30 minute treatment with 10 μM zinc sulfate and 20 μM pyrithione at pH 7.4, 25° C., followed by wash with Zinbo-5 stock; (D) ratio image of the same field after a 15 minute treatment with 1 mM TPEN.
The Zinbo-5 probe was tested in the mouse fibroblast LTK cell line. Cells were fixed, treated with a saturated solution of Zinbo-5 and then imaged with two-photon excitation (TPE) laser scanning microscopy using on Zeiss 510 LSM (upright configuration). The excitation beam produced by the femtosecond pulsed Ti:sapphire laser (Tsunami, Spectra-Physics; 8 W Millennia pump) was tuned to 710 nm, (pumping power 6.5 W with 0.5 W entering the Zeiss AOM) was passed through an LSM 510 microscope with an HFT 650 dichroic (Zeiss) and focused onto coverslip adherent fibroblasts using a 63x oil-immersion objective (Zeiss). The NLO META scan head (Zeiss) allowed data collection in 10.7 nm windows centered at 445 nm and 402 nm.
Cells were imaged in the presence of Zinbo-5 to provide the contrast of unbound dye outside of the cells (FIG. 5). After imaging, the same field of cells was treated with 10 μM zinc sulfate and 20 μM pyrithione, a zinc-selective ionophore, resulting in an anticipated increase in the intracellular ratio of emissions from 445 nm and 402 nm (FIG. 5, d-f). Finally, the intracellular ratio was made equal to that of the surrounding unbound dye by treating the same field of view with TPEN (FIG. 5, g-i).
LTK cells were grown as previously published (Nasir, M. S., et al., JBIC (1999) 4:775-783). Cells grown on coverslips were fixed with 4% formaldehyde on ice for 20 minutes and washed with cold PBS before staining. […] Coverslips were attached to slides using Secure-Seal spacers (Molecular Probes) with the saturated staining solution in the spacer well. […]

[2] = 10 μM ligand, 1 μM Zn(II), pH 7.20, 0.1 M ionic strength, 25° C.; prior art ligands, literature data; cited from earlier work
[3] = Binding constant determination: fluorescence intensity ratio (or UV absorbance) in Zn2+/EGTA buffered solutions
Experimental: FIG. 2. (A) Emission spectra of Zinbo-5 with the excitation at 356 nm in Zn^2+/EGTA buffered system (50 mM HEPES, pH 7.20, 0.1 M KNO3; 10 mM EGTA, 1-9 mM zinc sulfate) at 0, 0.14, 0.29, 0.66, 1.1, 1.8, 2.6, 4.0, 6.1, and 11 nM free Zn^2+, respectively. (B) Plots of the fluorescence intensity ratio between 395 nm and 443 nm (I443/I395) with a best curve for a dissociation constant of 2.1±0.1×10^−9.
FIG. 3. UV determination of dissociation constant, Kd: (A) Absorption ratio between at 340 nm and at 374 nm (Abs374/Abs340) in Zn^2+-buffered solution (50 mM HEPES, pH 7.20, 0.1 M KNO3; […], 1-9 mM zinc sulfate).
A series of HEPES (2-[4-(2-hydoroxyethyl)-1-piperazinyl]ethanesulfonic acid) buffer solutions (50 mM, pH 7.20, 0.1 M KNO3) containing various amounts of ZnSO4 (0˜9.5 mM) and 10 mM of EGTA (ethylenebis(oxyethylenenitrilo) tetraacetic acid) were prepared. The concentration of free Zn^2+ was calculated with [EGTA]total, [Zn^2+]total, and K′Zn-EGTA, the apparent binding constant at a given pH and ionic strength. […]
The ratio between 395 nm and 443 nm intensities in the emission spectrum of each solution was measured with the excitation wavelength at 356 nm and was fitted to the following equation (Eq. 2). […]

[4] = Calculated pZn values (-log[Zn]free) for a ligand/zinc solution; assay type: binding
Source text: […] […] The Zn^2+ affinity of Zinbo-5 is much higher than that of di(2-picolyl)amine (DPA), indicating—without limitation—that the phenolate oxygen and benoxazole nitrogen are likely chelating the metal as the third and fourth ligands.

[5] = Metal ion selectivity of fluorescence (ratio I443/I395) in biological buffers
Experimental: FIG. 4. Metal ion selectivity of Zinbo-5. Bars are a presentation of the fluorescence ratio I443/I395. Heavy metals (20 μM) and Na^+, K^+, Ca^2+, Mg^2+ (5 mM) were added to 1.5 μM Zinbo-5 in the presence of 10 μM EDTA.

[6] = Maximal water solubility (saturated staining solution); assay type: physicochemical; conditions: PBS (saturated staining solution), PBS with DMSO stock, on ice
[7] = heavy metals 20 μM, 1.5 μM probe, 10 μM EDTA

Compound: c1ccc(CN(CCN(Cc2ccccn2)Cc2ccccn2)Cc2ccccn2)nc1 [TPEN, N,N,N′,N′-tetrakis (2-pyridylmethyl) ethylenediamine, reference compound]
- decrease of the intracellular emission ratio ([1]; LTK cells stained with Zinbo-5, zinc loaded, then excess TPEN (1 mM, 15 minute)): 30%
- Calculated pZn (-log[Zn]free) [2]: 16.0

Compound: Cc1ccc(S(=O)(=O)Nc2cc(OCC(=O)O)cc3ccc(C)nc23)cc1 [Zinquin acid]
- Calculated pZn (-log[Zn]free) [2]: 9.3

Compound: COc1cc(O)c(-c2nc3c(CNCc4ccccn4)cccc3o2)cc1OC [Zinbo-5, 2-(4,5-dimethoxy-2-hydroxyphenyl)-4-(2-pyridlmethyl)aminomethylbenzoxazole]
- Zn^2+ affinity compared with di(2-picolyl)amine (DPA) [3]: much higher
- Kd ([3]; pH 7.20, fluorescence intensity ratio between 395 nm and 443 nm against log[Zn2+]free, read-out: apparent dissociation constant (Kd) for Zn^2+): 2.2 ± 0.1 nM
- Calculated pZn (-log[Zn]free) ([4]; 10 μM ligand, 1 μM Zn(II), pH 7.20, 0.1 M ionic strength, 25° C., the patent's own probe): 9.3
- pZn value (-log[Zn^2+]) ([4]; aqueous solution containing 10 µM ligand and 1 µM zinc ion at pH 7.20 and 0.1 M ionic strength): 9.3
- fluorescence response to Mn^2+, Co^2+, Ni^2+, Fe^+ and Cu^2+ [5, 7]: quenched the fluorescence
- fluorescence response to Zn^2+ and Cd^2+ [5, 7]: induced an emission shift
- fluorescence response to Na^+, K^+, Ca^2+ and Mg^2+ ([5]; metal concentrations as high as 5 mM): no fluorescent response
- cell permeability [1]: cell permeable
- average intracellular increase in the emission ratio (445 nm/402 nm) ([1]; LTK cells after 10 μM zinc sulfate and 20 μM pyrithione): ca. 15%
- solubility [6]: 1.5 µM (≈ 0.587 µg/mL)

Compound: O=C(O)c1cc(NCCN(Cc2ccccn2)Cc2ccccn2)ccc1-c1c2ccc(=O)cc-2oc2cc(O)ccc12 [ZnAF-1]
- Calculated pZn (-log[Zn]free) [2]: 10.1

Compound: O=C1OC2(c3ccccc31)c1cc(Cl)c(O)c(CN(Cc3ccccn3)Cc3ccccn3)c1Oc1c2cc(Cl)c(O)c1CN(Cc1ccccn1)Cc1ccccn1 [Zinpyr-1]
- Calculated pZn (-log[Zn]free) [2]: 10.1

Compound: O=C(O)CN(CC(=O)O)CC(=O)O [NTA]
- Calculated pZn (-log[Zn]free) [2]: 9.0

Compound: carbonic anhydrase
- Calculated pZn (-log[Zn]free) [2]: 12.4

Compound: O=C(O)CN(CCOCCOCCN(CC(=O)O)CC(=O)O)CC(=O)O [EGTA, ethylenebis(oxyethylenenitrilo) tetraacetic acid]
- Calculated pZn (-log[Zn]free) [2]: 9.5

Compound: O=C(O)CN(CCN(CC(=O)O)CC(=O)O)CC(=O)O [EDTA]
- Calculated pZn (-log[Zn]free) [2]: 14.3
